{"source": "patent US20020137731A1", "about": "“Combination of radiation and vitamin D3 analogs for the treatment of cancer” (priority 2000, published 2002)", "key": {"[1]": {"test_system": "MCF-7 breast tumor cells", "conditions": "Sundaram and Gewirtz, 1999; Sundaram et al., 2000; cited from earlier work"}, "[2]": {"test_system": "MCF-7 cells", "experiment": "Clonogenic analysis (colony forming assay) with statistical model of additivity", "format": "cell-based, human", "conditions": "for Predicted Response Under Additivity (Surviving Fraction): statistical model of additivity", "description": "(§1) All cell lines were grown from frozen stocks in basal RPMI 1640 medium supplemented with 10% fetal calf serum, 2 mM L-glutamine, penicillin/streptomycin at 37° C. under a humidified, 5% CO2 atmosphere. All studies were conducted using approximately 10^4 cells/cm^2 at day 0 with the use of time-equivalent and concentration-equivalent controls. The results shown are averages of two to three studies.\nMCF-7 cells were treated with ILX 23-7553 (200 nM), adriamycin or radiation alone and with ILX 23-7553 preceding various doses of adriamycin or radiation. For analysis of additivity, MCF-7 cells were treated with various doses of ILX 23-7553 (0-200 nM) in combination with a single dose of either adriamycin (20 nM) or irradiation (2.5 Gy). Cells were trypsinized immediately following adriamycin or radiation under sterile conditions and plated in triplicate in 6 well cell culture plates at approximately 1000 cells for each condition. After 7-10 days, the cells were fixed with 100% methanol, air-dried for 1-2 hr and stained with […] crystal violet. Groups of 50 or more cells were counted as colonies.\nThe predicted responses for the colony forming assay were determined using the following model: y=exp(B0+B1x1+B2x2) where y is the predicted response, x1 is either dose of irradiation ([…]) or adriarnycin (nM), x2 is the dose of ILX 23-7553 (nM), B0 is an unknown parameter associated with the intercept, B1 is an unknown parameter associated with the slope of x1 and B2 is an unknown parameter associated with the slope of x2. Parameter estimates were found using a generalized least squares criterion for nonlinear models. A constant variance was assumed across the dose range of all four compounds. The Gauss-Newton iterative algorithm was used in PROC NLIN in SAS (version 6.12) to find parameter estimates. The compare the observed response at each combination point to that predicted under the hypotheses of additivity, a prediction interval was used following Gennings et al. (1997). An overall test for additivity (Radford et al., 1994) was based on testing they hypothesis that the mean response under the hypothesis of additivity is the true mean response. The estimated responses under the hypothesis of additivity were provided by the additivity model. The estimated responses for the true means were provided by the sample means at each mixture group."}, "[3]": {"test_system": "MCF-7 cells", "experiment": "TUNEL assay of DNA fragmentation (apoptotic cell death)", "format": "cell-based, human", "conditions": "for DNA fragmentation indicative of apoptotic cell death: agent alone", "text": "The method of Gavrielli et al. (1992) was utilized as an independent assessment of apoptotic cell death in combined cytospins containing both adherent and non-adherent cells. The cells were fixed and the fragmented DNA in cells undergoing apoptosis was detected using the In Situ Cell Death detection Kit (Boehringer-Manheim). In this assay, the fragmented DNA in individual cells was end labeled using fluorescein-dUTP at strand breaks by the enzyme terminal transferase. The slides were then washed, mounted in Vectashield and photographed using a Nikon fluorescent microscope. For quantitation, fluorescent cells were scored positive for DNA fragmentation."}, "[4]": {"test_system": "MCF-7 cells", "experiment": "Viable cell number by trypan blue exclusion", "format": "cell-based, human", "description": "as §1\nThe response of cells treated with adriamycin (1 μM) for 2 hr and irradiation (10 Gy) was assessed 72 hr after treatment by trypan blue exclusion. The response of cells treated with ILX 23-7553 (200 nM) for 72 hr was evaluated 72 hr after removal of ILX 23-7553. To evaluate the combined effects of adriamycin or irradiation with ILX 23-7553 (200 nM), cells were treated with ILX 23-7553 for 72 hr prior to adriamycin (1 μM) or irradiation (10 Gy) and allowed to grow for an additional 72 hr. Cells were harvested using trypsin, stained with 0.4% trypan blue and trypan blue negative cells were counted under phase contrast microscopy."}, "[5]": {"test_system": "MCF-7 cells", "experiment": "Cell morphology (Wright-Giemsa stain, light microscopy)", "format": "cell-based, human", "conditions": "for apoptotic cell morphology (dark and shrunken cells): 72 h after exposure; for apoptotic cell morphology: agent alone", "text": "Seventy-two hours after adriamycin or irradiation exposure, cells were washed and cytocentrifuged onto microscopic slides. The cells were stained Wright-Giesma stain and photographed under a Nikon light microscope."}, "[6]": {"test_system": "MCF-7 cells", "conditions": "previous work, literature; cited from earlier work"}, "[7]": {"conditions": "ILX 23-7553 pretreatment followed by radiation"}}, "note": "Where “and” joins values, the source holds several entries; their conditions need not be identical. Equal entries are not always repeated. Where two headings read alike, the source gives them in different places.", "data": [{"smiles": "C=C1/C(=C\\C=C2/CCC[C@]3(C)[C@@H]([C@H](C)/C=C/C=C/C(O)(CC)CC)CC[C@@H]23)C[C@@H](O)C[C@@H]1O", "note": "[EB 1089]", "values": [{"measurement": "effect on the response of MCF-7 breast tumor cells to adriamycin and irradiation", "setting": "[1]", "result": "enhances"}]}, {"smiles": "C=C1/C(=C\\C=C2/CCC[C@]3(C)C([C@H](C)CC#CC(C)(C)O)=CC[C@@H]23)C[C@@H](O)C[C@@H]1O", "note": "[ILX 23-7553]", "values": [{"measurement": "fold decrease in adriamycin dose required to reduce clonogenic survival by 50%", "setting": "[2]; 200 nM ILX 23-7553 pretreatment for 72 h vs adriamycin alone", "result": "~2.5 fold and 2 fold"}, {"measurement": "fold reduction in irradiation dose required to reduce clonogenic survival by 50%", "setting": "[2]; 200 nM ILX 23-7553 pretreatment for 72 h vs irradiation alone", "result": 4, "unit": "fold"}, {"measurement": "Observed Mean Response (Surviving Fraction)", "setting": "[2]; Adr 1 nM, ILX 200 nM", "result": 0.67}, {"measurement": "Predicted Response Under Additivity (Surviving Fraction)", "setting": "[2]; Adr 1 nM, ILX 200 nM", "result": 0.53}, {"measurement": "Observed Mean Response (Surviving Fraction)", "setting": "[2]; Adr 5 nM, ILX 200 nM", "result": 0.58}, {"measurement": "Predicted Response Under Additivity (Surviving Fraction)", "setting": "[2]; Adr 5 nM, ILX 200 nM", "result": 0.51}, {"measurement": "Observed Mean Response (Surviving Fraction)", "setting": "[2]; Adr 10 nM, ILX 200 nM", "result": 0.52}, {"measurement": "Predicted Response Under Additivity (Surviving Fraction)", "setting": "[2]; Adr 10 nM, ILX 200 nM", "result": 0.49}, {"measurement": "Observed Mean Response (Surviving Fraction)", "setting": "[2]; Adr 20 nM, ILX 50 nM", "result": 0.58}, {"measurement": "Predicted Response Under Additivity (Surviving Fraction)", "setting": "[2]; Adr 20 nM, ILX 50 nM", "result": 0.63}, {"measurement": "Observed Mean Response (Surviving Fraction)", "setting": "[2]; Adr 20 nM, ILX 100 nM", "result": 0.50}, {"measurement": "Predicted Response Under Additivity (Surviving Fraction)", "setting": "[2]; Adr 20 nM, ILX 100 nM", "result": 0.56}, {"measurement": "Observed Mean Response (Surviving Fraction)", "setting": "[2]; Adr 20 nM, ILX 200 nM", "result": 0.46}, {"measurement": "Predicted Response Under Additivity (Surviving Fraction)", "setting": "[2]; Adr 20 nM, ILX 200 nM", "result": 0.44}, {"measurement": "Observed Mean Response (Surviving Fraction)", "setting": "[2]; Adr 100 nM, ILX 200 nM", "result": 0.24}, {"measurement": "Predicted Response Under Additivity (Surviving Fraction)", "setting": "[2]; Adr 100 nM, ILX 200 nM", "result": 0.20}, {"measurement": "Observed Mean Response (Surviving Fraction)", "setting": "[2]; IR 0.5 Gy, ILX 200 nM", "result": 0.34}, {"measurement": "Predicted Response Under Additivity (Surviving Fraction)", "setting": "[2]; IR 0.5 Gy, ILX 200 nM", "result": 0.51}, {"measurement": "Observed Mean Response (Surviving Fraction)", "setting": "[2]; IR 1.0 Gy, ILX 200 nM", "result": 0.27}, {"measurement": "Predicted Response Under Additivity (Surviving Fraction)", "setting": "[2]; IR 1.0 Gy, ILX 200 nM", "result": 0.41}, {"measurement": "Observed Mean Response (Surviving Fraction)", "setting": "[2]; IR 2.5 Gy, ILX 50 nM", "result": 0.23}, {"measurement": "Predicted Response Under Additivity (Surviving Fraction)", "setting": "[2]; IR 2.5 Gy, ILX 50 nM", "result": 0.29}, {"measurement": "Observed Mean Response (Surviving Fraction)", "setting": "[2]; IR 2.5 Gy, ILX 200 nM", "result": 0.20}, {"measurement": "Predicted Response Under Additivity (Surviving Fraction)", "setting": "[2]; IR 2.5 Gy, ILX 200 nM", "result": 0.22}, {"measurement": "Observed Mean Response (Surviving Fraction)", "setting": "[2]; IR 5.0 Gy, ILX 200 nM", "result": 0.13}, {"measurement": "Predicted Response Under Additivity (Surviving Fraction)", "setting": "[2]; IR 5.0 Gy, ILX 200 nM", "result": 0.08}, {"measurement": "dose of irradiation required to produce a 50% decrease in clonogenic survival", "setting": "[2]; after 200 nM ILX 23-7553 pretreatment (irradiation alone: 1 Gy)", "result": 0.25, "unit": "Gy"}, {"measurement": "type of interaction between ILX 23-7553 and irradiation (additive vs synergistic)", "setting": "[2]; colony forming assays, observed vs predicted surviving fractions, p=0.196", "result": "additively"}, {"measurement": "type of interaction between ILX 23-7553 and adriamycin (additive vs synergistic)", "setting": "[2]; colony forming assays, observed vs predicted surviving fractions, p=0.461", "result": "additively"}, {"measurement": "percent TUNEL-positive cells (cells with DNA fragmentation)", "setting": "[3]; ILX 23-7553 pretreatment followed by adriamycin", "result": "15% and 14%"}, {"measurement": "percent TUNEL-positive cells (cells with DNA fragmentation)", "setting": "[3]; ILX 23-7553 pretreatment followed by irradiation", "result": 7, "unit": "%"}, {"measurement": "DNA fragmentation indicative of apoptotic cell death", "setting": "[3]", "result": "not induced"}, {"measurement": "cytotoxicity at 0.2 µM", "setting": "[4]; Homo sapiens, MCF7, 72 h, ILX 23-7553 200 nM for 72 h alone, counted 72 h after removal, vs untreated controls, read-out: decrease in viable cell number", "result": 60, "unit": "%"}, {"measurement": "cytotoxicity at 0.2 µM", "setting": "[4]; Homo sapiens, MCF7, ILX 23-7553 200 nM 72 h pretreatment followed by 10 Gy ionizing radiation, counted 72 h after, read-out: decrease in viable cell number", "result": 93, "unit": "%"}, {"measurement": "cytotoxicity at 0.2 µM", "setting": "[4]; Homo sapiens, MCF7, ILX 23-7553 200 nM 72 h pretreatment followed by adriamycin 1 μM, counted 72 h after, read-out: decrease in viable cell number", "result": 97, "unit": "%"}, {"measurement": "decrease in viable cell numbers as compared to ILX 23-7553 alone", "setting": "[4]; [7]", "result": 66, "unit": "%"}, {"measurement": "decrease in viable cell numbers as compared to radiation alone", "setting": "[4]; [7]", "result": 24, "unit": "%"}, {"measurement": "apoptotic cell morphology (dark and shrunken cells)", "setting": "[5]; ILX 23-7553 in combination with adriamycin", "result": "observed"}, {"measurement": "apoptotic cell morphology (dark and shrunken cells)", "setting": "[5]; ILX 23-7553 in combination with irradiation", "result": "observed"}, {"measurement": "apoptotic cell morphology", "setting": "[5]", "result": "did not produce cells with this apoptotic morphology"}]}, {"smiles": "COc1cccc2c1C(=O)c1c(O)c3c(c(O)c1C2=O)C[C@@](O)(C(=O)CO)C[C@@H]3O[C@H]1C[C@H](N)[C@H](O)[C@H](C)O1", "note": "[adriamycin, reference compound]", "values": [{"measurement": "DNA fragmentation indicative of apoptotic cell death", "setting": "[3]", "result": "not induced"}, {"measurement": "induction of apoptotic cell death", "setting": "[6]", "result": "neither adriamycin nor irradiation induces apoptotic cell death"}, {"measurement": "cytotoxicity at 1 µM", "setting": "[4]; Homo sapiens, MCF7, adriamycin 1 μM (2 hr acute exposure) alone, counted 72 h after, vs untreated controls, read-out: decrease in viable cell number", "result": 74, "unit": "%"}, {"measurement": "apoptotic cell morphology", "setting": "[5]", "result": "did not produce cells with this apoptotic morphology"}]}]}
